Where a SMILES comes first, the peptide text is derived from it. [ ]: non-standard residue; d: D form. Aib = CC(C)(N)C(=O)O
Assays:
U937 cell line = assay: Cell growth, cell counts (trypan blue exclusion); format: cell-based, human; conditions: U937, 1 µM up to 30 µM, four days
Description: • Figure 1 Fluorescence Anisotropy Assay. Average anisotropy values: (open square) binding assay for increasing concentrations of Bcl-XL at a fixed concentration of fluorescent Bak-BH3 peptide. […] The error bars represent standard deviations observed from triplicate experiments. • Figure 2 072RB: cell growth effects. Panel A: Cell growth of U937 cell line treated for four days every 24 h at a 1 µM 072RB concentration and every 48 h at 3, 5, 10 and 30 µM 072RB concentrations. U937 controls at day 4, cell number: 350,000 ±50,000. Number of cells seeded at day 0: 20,000. Arrows indicate treatment time. […] All cells were counted in a Burker chamber and values are expressed as percentage of the untreated control cell number. Only living cells identified by trypan blue exclusion staining were counted. […] Flow cytometry measurements of DNA content (evaluated by propidium iodide (PI) fluorescence intensity) and physical cell side-scattering (evaluated by SSC) in U937 cells treated with Int and 072RB at 10 µM, twice each 48h. […] Three main cell populations can be observed in the bivariate PI/SSC plots, one with low SSC and normal DNA content (that accounts for "live" cells in culture), another with high SSC and normal DNA content (cells undergoing "early stage of apoptosis") and another one with lower PI fluorescence (cells at "late stage of apoptosis" and debris). […]

Bcl-XL = target: T1, Bcl-XL (Homo sapiens, UniProt Q07817, S2L); assay: Fluorescence anisotropy binding and competition binding assay; conditions: competition binding assay: BakF-BH3 2E-8 M, competitor peptide 2E-7 M, Bcl-XL 2E-8 M to 1E-6 M; 45 min, 30°C; read-out: Weighted mean Kd
T1 construct: with the C-terminus truncated; His6; made in house; host or cells: Escherichia coli BL21 (pLys)
Description: Fluorescence Anisotropy was monitored with a Polarion Instrument (Tecan, Austria): excitation wavelength = 485 nm, emission wavelength = 535 nm. […] Anisotropy values were studied at a fixed concentration of fluoresceinated Bak BH3 molecule (2E-8 M), a fixed concentration of peptide inhibitors (2E-7 M) and increasing concentrations of Bel-XL (from 2E-8 M to 1E-6 M). Experiments were performed in 96-wells black non-binding plates (Corning), the experimental volume was always 200 µl / well. Reagents were mixed at room temperature and maintained at a constant temperature (30°C) during the measurements. Anisotropy measurements were performed at different times of incubation to assess the stability of the reactions. […]
For simple binding experiments we evaluated the Kd using a nonlinear regression analysis [NLIN SAS] to fit the Lundblad equation [38]. […]
We calculated the expected Anisotropy value solving a third degree equation obtained extending the simple binding equation to a competitive binding inhibition assay. […]
Point estimates of each equilibrium constant were evaluated using meta-analytical tools weighting each experimental result for its estimated variance. […]
Fluorescence Anisotropy (FA) is a quantitative technique to analyze the interaction of a smaller fluorescent molecule with a larger non fluorescent molecule. […]

Namalwa cells = assay: Morphologic analysis of apoptosis (PI, confocal microscopy); format: cell-based, human; conditions: PI labeled Namalwa cells; and 48 h (072RB), 48 h (Int)
Description: After extensive washes, samples were incubated with PI (50µg/ml in PBS) and 100 units/ml Rnase type A and 10 mM EDTA (to inactivate endogenous nucleases) for 15 min at room temperature. After three washes, cells were put on a micro-slide, covered with a coverslip and analysed with an IX81 microscope equipped with He-Neon […] laser, suitable for PI fluorescence excitation (FV500, Olympus BioSystem). 10-15 fields were analysed with 40x oil/1.35NA or 60x oil/1.40NA objectives and images acquired with the Flowview 4.2b computer program.

T1 sequence (Q07817 1-212 S2L): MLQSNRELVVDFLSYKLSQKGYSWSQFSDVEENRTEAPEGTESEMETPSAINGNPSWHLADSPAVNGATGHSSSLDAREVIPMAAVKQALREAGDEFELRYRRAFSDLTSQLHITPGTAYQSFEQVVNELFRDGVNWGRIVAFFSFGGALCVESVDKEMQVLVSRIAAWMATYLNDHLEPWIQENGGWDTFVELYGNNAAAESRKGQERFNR

Compound: CC[C@H](C)[C@H](NC(=O)[C@H](CCCNC(=N)N)NC(=O)[C@H](CCCNC(=N)N)NC(=O)[C@H](CC(C)C)NC(=O)[C@H](CCC(=O)O)NC(=O)[C@H](CCC(N)=O)NC(=O)C(C)(C)NC(=O)[C@@H](NC(=O)[C@H](Cc1ccc(O)cc1)NC(=O)[C@@H](NC(=O)[C@H](CCC(=O)O)NC(=O)[C@@H]1CCCN1C(=O)[C@H](CCCNC(=N)N)NC(=O)[C@H](CCSC)NC(=O)[C@@H](N)CC(=O)O)[C@@H](C)CC)[C@@H](C)CC)C(=O)NCC(=O)N[C@@H](CC(=O)O)C(=O)N[C@@H](C)C(=O)N[C@@H](Cc1ccccc1)C(=O)N[C@@H](CC(N)=O)C(=O)NC(C)(C)C(=O)N[C@@H](Cc1ccc(O)cc1)C(=O)N[C@@H](CCCCN)C(=O)N[C@@H](CCCCN)C(=O)N[C@@H](Cc1c[nH]c2ccccc12)C(=O)N[C@@H](CCCCN)C(=O)N[C@@H](CCSC)C(=O)N[C@@H](CCCNC(=N)N)C(=O)N[C@@H](CCCNC(=N)N)C(=O)N[C@@H](CC(N)=O)C(=O)N1CCC[C@H]1C(=O)N[C@@H](Cc1ccccc1)C(=O)N[C@@H](Cc1c[nH]c2ccccc12)C(=O)N[C@H](C(=O)N[C@@H](CCCCN)C(=O)N[C@H](C(=O)N[C@@H](CCC(N)=O)C(=O)N[C@@H](CCCNC(=N)N)C(N)=O)[C@@H](C)CC)[C@@H](C)CC [Peptide 072RB] (H-DMRPEIYI[Aib]QELRRIGDAFN[Aib]YKKWKMRRNPFWIKIQR-NH2; N-terminus and C-terminus assumed)
- cell growth (cell counts) (U937 cell line): dose-dependent inhibition of cell growth
- Kd (Bcl-XL): 4.3 nM
- chromatin condensation and apoptotic body formation (Namalwa cells): exhibited chromatin condensation and apoptotic body formation

Reference: EP1985629A1, “Pro-apoptotic molecules and therapeutic uses thereof” (UNIVERSITA DEGLI STUDI DI GENOVA, priority 2007, dated 2008)
